Experiment: xn = mol fraction of the nth substance listed
Details: 101 kPa

CC(C)=O + O
Details | viscosity [mPa·s]
293.15 K, x1 = 0.047 | 1.328
293.15 K, x1 = 0.095 | 1.549
293.15 K, x1 = 0.124 | 1.586
293.15 K, x1 = 0.152 | 1.588
293.15 K, x1 = 0.192 | 1.504
293.15 K, x1 = 0.328 | 1.129
293.15 K, x1 = 0.49 | 0.746
293.15 K, x1 = 0.687 | 0.497
293.15 K, x1 = 0.85 | 0.404
298.15 K, x1 = 0.0201 | 1.047
298.15 K, x1 = 0.2 | 1.343
298.15 K, x1 = 0.4 | 0.88
298.15 K, x1 = 0.6 | 0.543
298.15 K, x1 = 0.8 | 0.372
303.15 K, x1 = 0.047 | 1.027
303.15 K, x1 = 0.095 | 1.179
303.15 K, x1 = 0.124 | 1.214
303.15 K, x1 = 0.152 | 1.212
303.15 K, x1 = 0.192 | 1.148
303.15 K, x1 = 0.328 | 0.901
303.15 K, x1 = 0.49 | 0.625
303.15 K, x1 = 0.687 | 0.435
303.15 K, x1 = 0.85 | 0.367
308.15 K, x1 = 0.0499 | 0.9532
308.15 K, x1 = 0.0702 | 1.015
308.15 K, x1 = 0.1 | 1.064
308.15 K, x1 = 0.12 | 1.08
308.15 K, x1 = 0.1499 | 1.084
308.15 K, x1 = 0.1701 | 1.069
308.15 K, x1 = 0.1999 | 1.039
308.15 K, x1 = 0.22 | 1.012
308.15 K, x1 = 0.2499 | 0.9681
308.15 K, x1 = 0.2701 | 0.9345
308.15 K, x1 = 0.3001 | 0.8823
308.15 K, x1 = 0.3499 | 0.7933
308.15 K, x1 = 0.4 | 0.7101
308.15 K, x1 = 0.4502 | 0.6353
308.15 K, x1 = 0.5001 | 0.5698
308.15 K, x1 = 0.6 | 0.4627
308.15 K, x1 = 0.7 | 0.3849
308.15 K, x1 = 0.7999 | 0.3262
308.15 K, x1 = 0.9 | 0.2729
313.15 K, x1 = 0.0201 | 0.7526
313.15 K, x1 = 0.047 | 0.826
313.15 K, x1 = 0.0499 | 0.8529
313.15 K, x1 = 0.0702 | 0.9032
313.15 K, x1 = 0.095 | 0.929
313.15 K, x1 = 0.1 | 0.9489
313.15 K, x1 = 0.12 | 0.961
313.15 K, x1 = 0.124 | 0.945
313.15 K, x1 = 0.1499 | 0.9659
313.15 K, x1 = 0.152 | 0.955
313.15 K, x1 = 0.1701 | 0.9492
313.15 K, x1 = 0.192 | 0.908
313.15 K, x1 = 0.1999 | 0.9232
313.15 K, x1 = 0.22 | 0.9029
313.15 K, x1 = 0.2499 | 0.8658
313.15 K, x1 = 0.2701 | 0.8358
313.15 K, x1 = 0.3001 | 0.792
313.15 K, x1 = 0.328 | 0.737
313.15 K, x1 = 0.3499 | 0.7155
313.15 K, x1 = 0.4 | 0.6429
313.15 K, x1 = 0.4502 | 0.5785
313.15 K, x1 = 0.49 | 0.536
313.15 K, x1 = 0.5001 | 0.5234
313.15 K, x1 = 0.6 | 0.4276
313.15 K, x1 = 0.687 | 0.386
313.15 K, x1 = 0.7 | 0.361
313.15 K, x1 = 0.7999 | 0.302
313.15 K, x1 = 0.85 | 0.333
313.15 K, x1 = 0.9 | 0.2597
318.15 K, x1 = 0.0201 | 0.6793
318.15 K, x1 = 0.0499 | 0.7678
318.15 K, x1 = 0.0702 | 0.8166
318.15 K, x1 = 0.1 | 0.8463
318.15 K, x1 = 0.12 | 0.8495
318.15 K, x1 = 0.1499 | 0.8555
318.15 K, x1 = 0.1701 | 0.8465
318.15 K, x1 = 0.1999 | 0.8249
318.15 K, x1 = 0.22 | 0.8044
318.15 K, x1 = 0.2499 | 0.7773
318.15 K, x1 = 0.2701 | 0.7529
318.15 K, x1 = 0.3001 | 0.7134
318.15 K, x1 = 0.3499 | 0.6478
318.15 K, x1 = 0.4 | 0.5851
318.15 K, x1 = 0.4502 | 0.5251
318.15 K, x1 = 0.5001 | 0.476
318.15 K, x1 = 0.6 | 0.3869
318.15 K, x1 = 0.7 | 0.3317
318.15 K, x1 = 0.7999 | 0.2774
318.15 K, x1 = 0.9 | 0.2431
323.15 K, x1 = 0.047 | 0.746
323.15 K, x1 = 0.095 | 0.834
323.15 K, x1 = 0.124 | 0.853
323.15 K, x1 = 0.152 | 0.859
323.15 K, x1 = 0.192 | 0.808
323.15 K, x1 = 0.328 | 0.682
323.15 K, x1 = 0.49 | 0.499
323.15 K, x1 = 0.687 | 0.367
323.15 K, x1 = 0.85 | 0.32

Reference: the CheMixHub viscosity set
